Assay results taken from PMC9046087, “Structural basis of tethered agonism of the adhesion GPCRs ADGRD1 and ADGRF1” (Nature, 2022).
Where a chain is given by its changes, count along the chain named. Ends that are not written are not given here.

Legend:
ADGRF1 [1] = molecular target: T1, ADGRF1 (Homo sapiens, UniProt Q5T601); test: BRET assay using TRUPATH biosensors, Gi activation of ADGRF1; format: cell-based; conditions: ADGRF1 WT; for Emax (mean ± s.e.m.): n = 3; for EC50: n = 3, read-out: pEC50 (mean ± s.e.m.) (converted)
T1 construct: Flag (N); expressed in transfected cells; host or cells: HEK293F
T1 sequence (Q5T601 20-910): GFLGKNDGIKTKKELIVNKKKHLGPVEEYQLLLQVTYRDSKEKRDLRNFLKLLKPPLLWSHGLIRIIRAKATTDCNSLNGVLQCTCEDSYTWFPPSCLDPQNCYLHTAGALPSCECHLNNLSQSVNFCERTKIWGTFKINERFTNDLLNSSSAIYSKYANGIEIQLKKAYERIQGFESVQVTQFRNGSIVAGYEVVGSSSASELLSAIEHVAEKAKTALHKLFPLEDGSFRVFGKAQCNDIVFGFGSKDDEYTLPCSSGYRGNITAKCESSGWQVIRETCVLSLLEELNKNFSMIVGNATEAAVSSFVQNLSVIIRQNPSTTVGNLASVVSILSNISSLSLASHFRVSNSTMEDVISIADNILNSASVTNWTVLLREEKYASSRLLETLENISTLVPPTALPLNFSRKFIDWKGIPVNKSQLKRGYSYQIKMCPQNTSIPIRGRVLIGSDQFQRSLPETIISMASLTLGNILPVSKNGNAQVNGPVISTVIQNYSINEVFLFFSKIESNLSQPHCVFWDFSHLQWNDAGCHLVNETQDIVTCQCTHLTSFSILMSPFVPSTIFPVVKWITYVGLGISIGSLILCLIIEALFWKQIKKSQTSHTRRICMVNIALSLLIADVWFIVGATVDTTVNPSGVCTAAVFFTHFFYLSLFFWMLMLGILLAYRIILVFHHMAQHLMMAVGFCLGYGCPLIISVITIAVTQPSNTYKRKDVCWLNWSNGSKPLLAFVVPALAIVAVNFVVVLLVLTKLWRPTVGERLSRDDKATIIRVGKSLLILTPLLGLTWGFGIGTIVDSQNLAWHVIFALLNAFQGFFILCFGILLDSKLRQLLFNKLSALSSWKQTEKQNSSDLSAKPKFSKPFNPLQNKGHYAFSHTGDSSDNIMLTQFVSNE
Procedure: (§1) To study the synthetic stalk peptide-induced G protein activation of ADGRD1 and ADGRF1, a BRET assay using TRUPATH biosensors was conducted to measure the proximal interaction between RLuc8 fused to the Gα subunit and GFP2 fused to the Gγ subunit. The TRUPATH suite of biosensors was obtained from Addgene (Addgene kit no. 1000000163) as a gift from B. Roth, including GαsS-RLuc8, Gαi1-RLuc8, Gβ3 and Gγ9-GFP2 as previously described.
(§2) The wild-type or mutant ADGRD1 and ADGRF1 were transiently co-transfected with plasmids encoding Gα-RLuc8 (GαsS-RLuc8 for Gs activation assay; Gαi1-RLuc8 for Gi activation assay), Gβ3 and Gγ9-GFP2 at a ratio of 2:1:1:1 (receptor plasmid, 800 ng; G protein subunit plasmids, 400 ng for each) in 2 ml HEK293F cells at a density of 1.2 × 10^6 cells per ml. Cell cultivation and receptor surface expression measurement were performed as described above. The cells were plated into 96-well white plates (40,000 cells per well) in 60 μl of assay buffer and incubated at 37 °C for 30 min. Then 10 μl of freshly prepared 50 μM coelenterazine 400a (Nanolight Technologies) was added. […] The cells were stimulated with 30 μl of synthetic stalk peptide at different concentrations and the BRET signals were monitored continuously five times. The last measurements were used in data analysis. The BRET ratios were calculated as the ratio of the GFP2 emission to RLuc8 emission.

ADGRD1 [2] = molecular target: T2, ADGRD1 (Homo sapiens, UniProt Q6QNK2); test: BRET assay using TRUPATH biosensors, G protein activation of ADGRD1; format: cell-based; conditions: Gs, ADGRD1 WT, n = 3; for EC50: read-out: pEC50 (mean ± s.e.m.) (converted)
T2 construct: Flag (N); expressed in transfected cells; host or cells: HEK293F
T2 sequence (Q6QNK2 26-874): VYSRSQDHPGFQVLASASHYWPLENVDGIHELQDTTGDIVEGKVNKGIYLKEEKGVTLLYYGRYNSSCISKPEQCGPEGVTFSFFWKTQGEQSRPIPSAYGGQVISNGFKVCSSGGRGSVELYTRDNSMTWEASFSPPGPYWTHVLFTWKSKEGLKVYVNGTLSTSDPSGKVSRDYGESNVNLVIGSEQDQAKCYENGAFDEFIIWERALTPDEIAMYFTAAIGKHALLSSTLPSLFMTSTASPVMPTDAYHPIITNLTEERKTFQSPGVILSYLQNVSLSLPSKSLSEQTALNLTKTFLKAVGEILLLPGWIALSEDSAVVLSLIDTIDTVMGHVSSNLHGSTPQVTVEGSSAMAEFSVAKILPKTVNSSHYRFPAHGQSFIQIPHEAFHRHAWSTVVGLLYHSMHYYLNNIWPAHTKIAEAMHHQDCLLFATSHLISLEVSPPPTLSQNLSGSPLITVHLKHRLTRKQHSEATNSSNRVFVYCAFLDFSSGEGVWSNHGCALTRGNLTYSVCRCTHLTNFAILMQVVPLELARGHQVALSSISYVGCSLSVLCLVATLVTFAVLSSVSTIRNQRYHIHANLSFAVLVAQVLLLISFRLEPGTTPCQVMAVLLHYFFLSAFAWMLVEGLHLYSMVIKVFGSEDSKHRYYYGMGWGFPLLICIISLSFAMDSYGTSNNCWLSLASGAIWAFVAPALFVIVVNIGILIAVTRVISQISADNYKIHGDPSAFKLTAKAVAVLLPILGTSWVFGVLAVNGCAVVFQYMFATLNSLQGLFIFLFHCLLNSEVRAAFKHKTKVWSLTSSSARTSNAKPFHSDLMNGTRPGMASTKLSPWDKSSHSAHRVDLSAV
Procedure: as §1, §2

ADGRD1 [3] = test: Cell-surface expression by flow cytometry, ADGRD1; format: cell-based, human; conditions: ADGRD1 constructs (pD1 Gs part of table), anti-Flag antibody, three independent measurements in duplicate
Procedure: (§3) The wild-type ADGRD1 and ADGRF1 and mutants used in functional studies were constructed into a pTT5 vector with a Flag tag at the N terminus for receptor expression measurement. The basal activity of ADGRD1 and ADGRF1 in mediating Gs signalling was measured by a cAMP accumulation assay using a LANCE Ultra cAMP detection kit (PerkinElmer) following the manufacturer’s instruction. In brief, 2 ml HEK293F cells (Invitrogen; cells were routinely tested for mycoplasma contamination) at a density of 1.2 × 10^6 cells per ml were transiently transfected with 2,000 ng plasmid of the wild-type or mutant receptor and cultured at 37 °C for 48 h with 5% CO2 atmosphere in a shaker shaking at 220 rpm. After collection, the cell-surface expression of the receptors was measured by incubating 10 μl cells with 15 μl monoclonal anti-Flag M2-FITC antibody (Sigma; 1:120 diluted in TBS supplemented with 4% BSA and 20% viability staining solution 7-AAD (Invitrogen)) at 4 °C for 20 min. After incubation, 175 μl TBS buffer was added and the fluorescent signal was measured using a flow cytometry reader (Guava easyCyte HT, Millipore).

ADGRF1 [4] = test: Cell-surface expression by flow cytometry, ADGRF1; format: cell-based, human; conditions: anti-Flag antibody, three independent measurements in duplicate
Procedure: as §3

[5] = ADGRF1 constructs (pF1 Gi part of table)

**Q.** How did the “Emax (mean ± s.e.m.)” value (ADGRF1 [1]) turn out when `CC[C@H](C)[C@H](NC(=O)[C@H](C)NC(=O)[C@H](Cc1ccccc1)NC(=O)[C@H](CC(N)=O)NC(=O)[C@@H](N)[C@@H](C)O)C(=O)N[C@@H](CC(C)C)C(=O)N[C@@H](CCSC)C(=O)N[C@@H](CCC(N)=O)C(=O)N[C@H](C(=O)N[C@H](C(=O)N1CCC[C@H]1C(=O)N[C@@H](CC(C)C)C(=O)N[C@@H](CCC(=O)O)C(=O)O)C(C)C)C(C)C` [pD1] was run?
**A.** Its value is 82 ± 8 % of WT.

**Q.** What about the EC50 (ADGRF1 [1]) of the same molecule?
**A.** The EC50 was 132 nM.

**Q.** For TNAAILMQVVPLE [pD1 (F547^S3A)], which “Emax (mean ± s.e.m.)” value (ADGRD1 [2]) is on record?
**A.** Its value is 69 ± 13 % of WT.

**Q.** And the EC50 (ADGRD1 [2])?
**A.** The EC50 was 724 nM.

**Q.** How did the “Emax (mean ± s.e.m.)” value (ADGRD1 [2]) turn out when TNFAIAMQVVPLE [pD1 (L550^S6A)] was run?
**A.** Its value is 53 ± 5 % of WT.

**Q.** What about the EC50 (ADGRD1 [2]) of the same molecule?
**A.** The EC50 was 166 nM.

**Q.** Which “Emax (mean ± s.e.m.)” value (ADGRD1 [2]) does the source give for TNFAILAQVVPLE [pD1 (M551^S7A)] here?
**A.** Its value is 79 ± 10 % of WT.

**Q.** What about the EC50 (ADGRD1 [2]) of the same molecule?
**A.** The EC50 was 263 nM.

**Q.** For TSASILMSPFVP [pF1 (F569^S3A)], which “Emax (mean ± s.e.m.)” value (ADGRF1 [1]) is on record?
**A.** Its value is 108 ± 7 % of WT.

**Q.** What about the EC50 (ADGRF1 [1]) of the same molecule?
**A.** The EC50 was 380 nM.

**Q.** Which “Emax (mean ± s.e.m.)” value (ADGRF1 [1]) does the source give for TSFSIAMSPFVP [pF1 (L572^S6A)] here?
**A.** The value was 101 ± 12 % of WT.

**Q.** And the EC50 (ADGRF1 [1])?
**A.** Its EC50 is 676 nM.

**Q.** TSFSILASPFVP [pF1 (M573^S7A)] was tested. Which “Emax (mean ± s.e.m.)” value (ADGRF1 [1]) did it give?
**A.** The value was 87 ± 11 % of WT.

**Q.** And the EC50 (ADGRF1 [1])?
**A.** Its EC50 is 501 nM.

B1: F716^5.36bA (protein, UniProt Q6QNK2 26-874, looked up, variant F716A)
Adhesion G-protein coupled …: T2 sequence (Q6QNK2 26-874) with F691A
**Q.** How did the “Cell-surface expression (% of WT)” value (ADGRD1 [3]) turn out when B1 was run?
**A.** The value was 98 ± 3 % of WT.

B2: W773^6.53bA (protein, UniProt Q6QNK2 26-874, looked up, variant W773A)
Adhesion G-protein coupled …: T2 sequence (Q6QNK2 26-874) with W748A
**Q.** How did the “Cell-surface expression (% of WT)” value (ADGRD1 [3]) turn out when B2 was run?
**A.** Its value is 69 ± 2 % of WT.

B3: Q798^7.49bA (protein, UniProt Q6QNK2 26-874, looked up, variant Q798A)
Adhesion G-protein coupled …: T2 sequence (Q6QNK2 26-874) with Q773A
**Q.** Which “Cell-surface expression (% of WT)” value (ADGRD1 [3]) does the source give for B3 here?
**A.** Its value is 96 ± 18 % of WT.

B4: H605^2.50bA (protein, UniProt Q6QNK2 26-874, looked up, variant H605A)
Adhesion G-protein coupled …: T2 sequence (Q6QNK2 26-874) with H580A
**Q.** How did the “Cell-surface expression (% of WT)” value (ADGRD1 [3]) turn out when B4 was run?
**A.** Its value is 102 ± 7 % of WT.

B5: G702^4.45bY (protein, UniProt Q5T601 20-910, looked up, variant G702Y)
Adhesion G-protein coupled …: T1 sequence (Q5T601 20-910) with G683Y
**Q.** With B5 as the molecule, how does the “Cell-surface expression (% of WT)” value (ADGRF1 [4]; [5]) read?
**A.** Its value is 87 ± 12 % of WT.

**Q.** And the “Cell-surface expression (% of WT)” value (ADGRF1 [4]; ADGRF1 constructs, in parallel to A8-induced Gi activation)?
**A.** The value was 94 ± 1 % of WT.

**Q.** And the “Cell-surface expression (% of WT)” value (ADGRF1 [4]; ADGRF1 constructs, in parallel to A8-induced Gs activation)?
**A.** The value was 104 ± 2 % of WT.

B6: V689^ICL2A (protein, UniProt Q5T601 20-910, looked up, variant V689A)
Adhesion G-protein coupled …: T1 sequence (Q5T601 20-910) with V670A
**Q.** What does the source list for B6?
**A.** Cell-surface expression (% of WT) (ADGRF1 [4]; [5]): 112 ± 3 % of WT; Cell-surface expression (% of WT) (ADGRF1 [4]; ADGRF1 constructs, in parallel to pF1-induced Gs activation): 114 ± 10 % of WT
